Data on five molecules can be found in patent publication US20240207267A1, “(R)-Glutarimide CRBN Ligands and Methods of Use” (BeiGene Switzerland GmbH, priority 2021, published 2024).

Common to all, as to type: cell-based
In test [1] the target is IRAKM (THP-1 cells) (Homo sapiens (Human), UniProt Q9Y616). The experiment in a line: IRAKM degradation HTRF assay in THP-1 cells. Conditions: 6 h treatment. The procedure: THP-1 cells are treated with compounds diluted in 0.2% DMSO, dilution is done according to the following protocol: (1) make 500× stock solution in DMSO from 5 mM by 5-fold dilution, total 8 doses were included; (2) make 2× solution in cell culture medium by transferring 0.5 μl 500× stock solution into 125 μl medium; (3) 15 μl of 2× solution is added to cells and incubate for 6 h.
IRAKM (THP-1 cells), sequence (Q9Y616 whole entry): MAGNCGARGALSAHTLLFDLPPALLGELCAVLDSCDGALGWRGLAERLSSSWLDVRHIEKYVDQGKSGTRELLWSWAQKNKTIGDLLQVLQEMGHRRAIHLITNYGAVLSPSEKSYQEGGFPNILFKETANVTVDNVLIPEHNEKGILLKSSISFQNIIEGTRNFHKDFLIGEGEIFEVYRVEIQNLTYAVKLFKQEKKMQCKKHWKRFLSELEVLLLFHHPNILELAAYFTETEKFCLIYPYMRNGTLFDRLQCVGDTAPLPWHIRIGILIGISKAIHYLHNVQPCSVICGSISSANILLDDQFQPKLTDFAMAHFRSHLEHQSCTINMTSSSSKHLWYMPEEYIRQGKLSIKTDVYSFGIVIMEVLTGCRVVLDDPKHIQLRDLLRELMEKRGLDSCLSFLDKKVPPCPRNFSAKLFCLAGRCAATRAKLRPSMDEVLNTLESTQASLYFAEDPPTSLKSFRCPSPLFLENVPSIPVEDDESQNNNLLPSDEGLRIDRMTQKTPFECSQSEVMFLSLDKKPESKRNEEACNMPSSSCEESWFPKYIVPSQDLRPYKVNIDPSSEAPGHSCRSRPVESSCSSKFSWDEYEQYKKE
After 6 h treatment, add 10 μl 4xlysis buffer to each well; seal the plate and incubate 1 hour at room temperature on a plate shaker; Once the cells are lysed, 16 μL of cell lysate are transferred to a PE 384-well HTRF detection plate(for triple mutant cells, the lysate were diluted by the qual volume 1xlysis buffer before transfer); 4 μL of pre-mixed HTRF antibodies are added to each well; Cover the plate with a plate sealer, spin 1000 rpm for 1 min, Incubate overnight at room temperature; Read on BMG PheraStar with HTRF protocol (337 nm-665 nm-620 nm).
(§1) The IC50 (DC50) value of a compound can be obtained by fitting the following equation
(§2) Y=Bottom+(TOP−Bottom)/(1+((IC50/X)^hillslope))
Wherein, X and Y are known values, and IC50, Hillslope, Top and Bottom are the parameters obtained by fitting with software. Y is the inhibition percentage (calculated from the equation), X is the concentration of the compound; IC50 is the concentration of the compound when the 50% inhibition is reached. […]
(Time-resolved FRET reads energy transfer from a long-lived donor to a nearby acceptor.)

Test [2] concerns the target T1, BTK (TMD-8 cells) (Homo sapiens (Human), UniProt Q06187). The experiment in a line: BTK degradation HTRF assay in TMD-8 cells (Test Example 1). As to conditions: Table 3; for DC50: 6 h treatment, BTK degradation; for Dmax: TMD8, 6 h treatment, maximum percentage of BTK degradation. The procedure: 1c). […] TMD-8 cells are treated with compounds diluted in 0.2% DMSO, dilution is done according to the following protocol: (1) make 500× stock solution in DMSO from 1 mM by 6-fold dilution, total 8 doses were included; (2) make 2× solution in cell culture medium by transferring 0.5 μl 500× stock solution into 125 μl medium; (3) 15 μl of 2× solution is added to cells and incubate for 6 h.
After 6 h treatment, add 10 μl 4xlysis buffer to each well; seal the plate and incubate 30 min at room temperature on a plate shaker; Once the cells are lysed, 16 μL of cell lysate are transferred to a PE 384-well HTRF detection plate; 4 μL of pre-mixed HTRF antibodies are added to each well; Cover the plate with a plate sealer, spin 1000 rpm for 1 min, Incubate overnight at room temperature; Read on BMG PheraStar with HTRF protocol (337 nm-665 nm-620 nm).
as §1, §2
(§3) Wherein, X and Y are known values, and IC50, Hillslope, Top and Bottom are the parameters obtained by fitting with software. Y is the inhibition percentage (calculated from the equation), X is the concentration of the compound; IC50 is the concentration of the compound when the 50% inhibition is reached. The smaller the IC50 value is, the stronger the inhibitory ability of the compound is. Vice versa, the higher the IC50 value is, the weaker the ability the inhibitory ability of the compound is; Hillslope represents the slope of the fitted curve, generally around 1*; Bottom represents the minimum value of the curve obtained by data fitting, which is generally 0%±20%; Top represents the maximum value of the curve obtained by data fitting, which is generally 100%±20%. The experimental data were fitted by calculating and analyzing with Dotmatics data analysis software.

The test system of test [3] is HEK-293 cells. Description: HEK-293 cytotoxicity detection (CellTiter-Glo). As to conditions: Homo sapiens, HEK293, 72 h incubation. The method, then:
HEK-293 cells were treated with compounds diluted in 0.2% DMSO, dilution was done according to the following protocol: (1) making 500× stock solution in DMSO from 5 mM by 4-fold dilution, total 8 doses were included; (2) making 2× solution in cell culture medium by transferring 0.5ul 500× stock solution into 125ul medium; (3) adding 50ul of 2× solution to cells for incubation of 72 h.
25 μl of the CellTiter-Glo®Reagent [(Promega) - Cat No. G7572] was added to each well in the 96-well plate. The contents were mixed for 2 minutes on an orbital shaker to induce cell lysis. The plate was then allowed to incubate at room temperature for 10 minutes to stabilize luminescent signal. Luminescence was recorded on BMG PheraStar with luminescence protocol.
The IC50 value of a compound can be obtained by fitting the following equation
as §2, §3
For orientation: In ATP-based viability assays light output follows the ATP content of the culture.

Test [4] deals with T1, BTK (TMD-8 cells). The experiment in a line: BTK degradation HTRF assay in TMD-8 cells (Test Example 3). As to conditions: 6 h treatment, Table 5. The procedure:
TMD-8 cells were treated with compounds diluted in 0.2% DMSO, dilution was done according to the following protocol: (1) making 500× stock solution in DMSO from 1 mM by 6-fold dilution, total 8 doses were included; (2) making 2× solution in cell culture medium by transferring 0.5 μl 500× stock solution into […]; (3) adding 15 μl of 2× solution to cells for incubation of 6 h.
After 6 h treatment, 10 μl 4xlysis buffer was added to each well; the plate was sealed and incubated for 30 min at room temperature on a plate shaker; Once the cells was lysed, 16 μL of cell lysate were transferred to a PE 384-well HTRF detection plate; 4 μL of pre-mixed HTRF antibodies were added to each well; the plate was covered with a plate sealer, and then spinned at 1000 rpm for 1 min, then incubated overnight at room temperature; the results were read on BMG PheraStar with HTRF protocol (337 nm-665 nm-620 nm).
as §1, §2
as §3, with “wherein,” for “Wherein,”

T1 sequence (Q06187 whole entry): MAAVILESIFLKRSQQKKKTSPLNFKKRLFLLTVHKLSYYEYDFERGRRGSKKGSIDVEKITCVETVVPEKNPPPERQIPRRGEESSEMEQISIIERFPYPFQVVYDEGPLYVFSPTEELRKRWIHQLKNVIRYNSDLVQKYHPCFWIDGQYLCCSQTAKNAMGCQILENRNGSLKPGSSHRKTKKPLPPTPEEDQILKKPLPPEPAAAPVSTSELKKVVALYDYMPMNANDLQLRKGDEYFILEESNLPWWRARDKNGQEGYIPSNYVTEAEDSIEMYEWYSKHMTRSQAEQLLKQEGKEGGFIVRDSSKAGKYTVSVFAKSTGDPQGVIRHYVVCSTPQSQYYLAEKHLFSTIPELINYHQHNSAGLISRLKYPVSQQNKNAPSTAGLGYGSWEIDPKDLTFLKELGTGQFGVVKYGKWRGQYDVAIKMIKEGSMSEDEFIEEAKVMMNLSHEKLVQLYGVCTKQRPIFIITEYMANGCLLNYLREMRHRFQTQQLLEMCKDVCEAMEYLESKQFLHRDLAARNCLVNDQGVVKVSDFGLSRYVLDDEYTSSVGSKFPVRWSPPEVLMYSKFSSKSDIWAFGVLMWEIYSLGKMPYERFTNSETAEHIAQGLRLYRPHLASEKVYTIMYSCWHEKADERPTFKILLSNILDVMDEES

Usually DC50 stands for the midpoint of the concentration-degradation curve. In the case of `CCc1nc(C(N)=O)c(Nc2ccc(N3CCC(N4CCN(CCc5cc(F)c(C6CCC(=O)NC6=O)c(F)c5)CC4)CC3)c(OC)c2)nc1NC1CCOCC1` (stereo not drawn) [Example D42, 3-((4-(4-(4-(4-(2,6-dioxopiperidin-3-yl)-3,5-difluorophenethyl)piperazin-1-yl)piperidin-1-yl)-3-methoxyphenyl)amino)-6-ethyl-5-((tetrahydro-2H-pyran-4-yl)amino)pyrazine-2-carboxamide], the DC50 in test [1] turned out to be 2.8 nM.

Usually Dmax stands for the greatest extent of degradation seen. Read a high Dmax as a fuller loss of target. Consider `Cc1cc(-c2n[nH]c3ncc(-c4ccc(C5CCN(CCc6ccc(C7CCC(=O)NC7=O)cc6)CC5)cc4)cc23)ccc1CNC(=O)c1nc(C(C)(C)C)no1` (stereo not drawn) [Example 31, 3-(tert-butyl)-N-(4-(5-(4-(1-(4-(2,6-dioxopiperidin-3-yl)phenethyl)piperidin-4-yl)phenyl)-1H-pyrazolo[3,4-b]pyridin-3-yl)-2-methylbenzyl)-1,2,4-oxadiazole-5-carboxamide], for which, in test [2], the DC50 was more than 2000 nM and the Dmax worked out at 12%.

Take `Cc1cc(-c2n[nH]c3ncc(-c4ccc(C5CCN(CCc6cc(F)c([C@H]7CCC(=O)NC7=O)c(F)c6)CC5)cc4)cc23)ccc1CNC(=O)c1nc(C(C)(C)C)no1` [Example 32, (R)-3-(tert-butyl)-N-(4-(5-(4-(1-(4-(2,6-dioxopiperidin-3-yl)-3,5-difluorophenethyl)piperidin-4-yl)phenyl)-1H-pyrazolo[3,4-b]pyridin-3-yl)-2-methylbenzyl)-1,2,4-oxadiazole-5-carboxamide]: in test [2], the DC50 is 5.33 nM and the Dmax was 97.4%.

The term IC50 denotes the concentration needed to halve the response being measured. With `Cc1cc(-c2cc(Nc3ccc(N4CCN(CCc5cc(F)c([C@H]6CCC(=O)NC6=O)c(F)c5)CC4)cn3)ncn2)ccc1[C@@H](C)NC(=O)c1nc(C(C)(C)C)no1` [Example C41, 3-(tert-butyl)-N—((R)-1-(4-(6-((5-(4-(4-((R)-2,6-dioxopiperidin-3-yl)-3,5-difluorophenethyl)piperazin-1-yl)pyridin-2-yl)amino)pyrimidin-4-yl)-2-methylphenyl)ethyl)-1,2,4-oxadiazole-5-carboxamide], the IC50 in test [3] was more than 10000 nM. This molecule also showed a DC50 in test [4] of 2.73 nM.

Molecule `Cc1c(C(=O)Nc2cn(C)cn2)ccc(-c2nn3c(c2C(N)=O)Nc2ccc(N4CCN(CCc5cc(F)c([C@H]6CCC(=O)NC6=O)c(F)c5)CC4)cc2CC3)c1F` [Example B37, (R)-7-(4-(4-(2,6-dioxopiperidin-3-yl)-3,5-difluorophenethyl)piperazin-1-yl)-2-(2-fluoro-3-methyl-4-((1-methyl-1H-imidazol-4-yl)carbamoyl)phenyl)-9,10-dihydro-4H-benzo[d]pyrazolo[1,5-a][1,3]diazepine-3-carboxamide] came in with an IC50 in test [3] of more than 10000 nM. In test [4], this molecule gave a DC50 of 0.414 nM.
